Results from patent US20100055066A1, “Agent for prophylactic and/or therapeutic treatment of diabetes” (priority 2004, published 2010).

Tests used:
Type in all cases: in vivo
SHP = experiment: Liver SHP gene expression by quantitative PCR after FXR agonist (Example 2); conditions: KKAy mice, 10 mg/kg orally for 4 days, liver on 5th day, FIG. 6-2
Procedure: (§1) An FXR agonist, GW-4064 (J. Med. Chem., vol. 43(16), pp. 2971-2974, 2000), was orally administered in a dosage of 10 mg/kg for 4 days. On the 5th day, mice were dissected to isolate the livers.

cyp7α = experiment: Liver cyp7α gene expression by quantitative PCR after FXR agonist (Example 2); conditions: KKAy mice, 10 mg/kg orally for 4 days, liver on 5th day, FIG. 6-1
Procedure: as §1

PEPCK = experiment: Liver PEPCK gene expression by quantitative PCR after FXR agonist (Example 2); conditions: KKAy mice, 10 mg/kg orally for 4 days, liver on 5th day, FIG. 7
Procedure: as §1

CC(C)c1onc(-c2c(Cl)cccc2Cl)c1COc1ccc(/C=C/c2cccc(C(=O)O)c2)c(Cl)c1 [GW-4064]
expression level of the gene for SHP in the liver compared with control group (SHP): increased | expression level of the gene for cyp7α in the liver compared with control group (cyp7α): decreased | expression level of the gene for PEPCK in the liver compared with control group (PEPCK): increased
